Measured values taken from patent US20260274922A1, “SYNTHETIC ESTROGEN RECEPTOR (ER)-DERIVED PEPTIDE” (THE TEXAS A&M UNIVERSITY SYSTEM, priority 2023, published 2026).
Where no end group is shown, it is not given here. The star is where a group is joined. FITC = O=C1OC2(c3ccc(O)cc3Oc3cc(O)ccc32)c2ccc(NC(=S)*)cc21

What was measured:
12-month-old female mice = assay: AF1 peptide treatment of aging female mice (12-month-old); format: in vivo, mouse; details: 5 mg/kg i.v. twice per week, 5 weeks
Procedure: Postmenopause in old women is highly associated with increased risk of diabetes.
(§1) Glucose and insulin tolerance tests. For glucose tolerance tests, mice were fasted for 16 h and intraperitoneally (i.p.) injected with dextrose (1 g/kg body weight for mice fed with regular diet; 0.5 g/kg body weight for db/db mice or mice fed with HFD). For insulin tolerance tests, mice were fasted for 6 h and i.p. injected with insulin solution (1 U/kg body weight for male mice; 0.75 U/kg body weight for female mice). Blood glucose levels were measured using glucometer at indicated time points.

DKO male mice = assay: AF1 peptide treatment of liver-specific IRS1 and IRS2 knockout (DKO) mice; format: in vivo, mouse
Procedure: Animal studies. All animal experiments were performed following procedures approved by the Texas A&M University Institutional Animal Care and Use Committee. Mice are housed at 22-24° C. and maintained on a 12 h light/12 h dark cycle with a standard chow diet (58% calories from carbohydrate, 18% from fat, and 24% from protein, 3.1 kcal/g, with a reduced phytoestrogen content; Teklad Diet) ad libitum. Liver-specific ERα (ERα^LivKO) or ERβ (ERβ^LivKO) knockout mice were generated by crossing ERα or ERβ flox mice (gift from Dr. Yong Xu, Baylor College of Medicine) with Albumin-Cre mice purchased from The Jackson Laboratory (Strain #003574), respectively. Liver IRS1 and IRS2 double knockout (DKO) mice were generated by breeding IRS1 and IRS2 flox (IRS1^L/L::IRS2^L/L) mice with Albumin-Cre mice. Liver IRS1, IRS2, and ERα triple knockout (TKO) mice were generated by crossing DKO mice with ERα^LivKO mice. All mice were on C57B/6J background. Db/db mice were purchased from The Jackson Laboratory (Strain #000697). Female mice at age of 2-month-old underwent a bilateral ovariectomy (OVX) surgery; these mice were used to perform experiments 4 weeks after OVX surgery. All the mice experiments were performed with age- and gender-matched mice with their health status examined daily by the investigators and technicians from Texas A&M University LARR Animal Facility. Littermate controls were used if possible.
as §1
(§2) Co-immunoprecipitation and Western blotting analysis. […] Protein bands were detected using a ChemiDoc image system.

IRS1 = target: T1, IRS1 (Homo sapiens, UniProt P35568); assay: Effect of AF1 peptide on IRS1 ubiquitination in HEK293T cells; format: cell-based
T1 sequence (P35568 1-1242): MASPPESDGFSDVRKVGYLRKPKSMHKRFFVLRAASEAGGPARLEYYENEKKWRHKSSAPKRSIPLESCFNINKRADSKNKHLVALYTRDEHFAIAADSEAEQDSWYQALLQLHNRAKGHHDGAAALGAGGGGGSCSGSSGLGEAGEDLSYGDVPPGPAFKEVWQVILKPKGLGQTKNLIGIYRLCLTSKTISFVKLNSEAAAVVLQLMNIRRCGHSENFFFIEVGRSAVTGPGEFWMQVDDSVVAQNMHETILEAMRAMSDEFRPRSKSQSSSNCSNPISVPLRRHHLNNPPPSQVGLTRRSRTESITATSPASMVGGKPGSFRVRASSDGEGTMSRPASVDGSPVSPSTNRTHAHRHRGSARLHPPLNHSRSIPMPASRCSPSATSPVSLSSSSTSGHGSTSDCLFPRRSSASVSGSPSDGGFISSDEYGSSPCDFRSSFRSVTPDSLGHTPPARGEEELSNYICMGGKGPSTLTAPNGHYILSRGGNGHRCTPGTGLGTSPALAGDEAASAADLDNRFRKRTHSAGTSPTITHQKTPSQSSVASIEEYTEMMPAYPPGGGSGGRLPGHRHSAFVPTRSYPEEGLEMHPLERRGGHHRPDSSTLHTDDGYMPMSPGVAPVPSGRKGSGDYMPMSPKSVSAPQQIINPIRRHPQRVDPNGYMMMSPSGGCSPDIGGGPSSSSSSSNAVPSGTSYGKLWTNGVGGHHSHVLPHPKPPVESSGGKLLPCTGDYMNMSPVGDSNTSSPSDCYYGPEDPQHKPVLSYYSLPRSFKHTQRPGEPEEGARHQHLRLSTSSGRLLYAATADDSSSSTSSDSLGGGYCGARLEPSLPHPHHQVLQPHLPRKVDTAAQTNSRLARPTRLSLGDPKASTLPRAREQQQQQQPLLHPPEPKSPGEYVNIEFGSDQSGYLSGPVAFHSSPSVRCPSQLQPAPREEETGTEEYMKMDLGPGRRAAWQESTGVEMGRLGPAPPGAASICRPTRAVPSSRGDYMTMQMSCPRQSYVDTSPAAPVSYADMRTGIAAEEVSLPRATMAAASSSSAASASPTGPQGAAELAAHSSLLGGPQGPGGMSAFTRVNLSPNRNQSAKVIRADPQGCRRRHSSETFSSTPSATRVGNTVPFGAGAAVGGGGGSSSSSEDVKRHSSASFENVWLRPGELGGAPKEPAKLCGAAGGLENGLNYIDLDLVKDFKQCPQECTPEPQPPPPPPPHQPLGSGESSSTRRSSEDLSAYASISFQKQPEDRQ
Excerpt: as §2

Question: What does the source list for “YGRKKRRQRRRTKASGMALLHEPLNRPQLKIPLERDSSKPAVYNY ({FITC}-YGRKKRRQRRRTKASGMALLHEPLNRPQLKIPLERDSSKPAVYNY) [AF1 peptide]”?
Answer: glucose tolerance (12-month-old female mice): nonsignificant increase; insulin sensitivity (12-month-old female mice): modest improvement; glucose homeostasis (DKO male mice; glucose tolerance test): significantly improved; insulin sensitivity (DKO male mice; insulin tolerance test): significantly improved; insulin-induced AKT phosphorylation in the liver (DKO male mice; liver): could not be rescued; insulin-stimulated AKT phosphorylation in skeletal muscle and eWAT (DKO male mice; skeletal muscle and epididymal white adipose tissue): partially improved; ubiquitination of IRS1 (IRS1): attenuated
